# Measured values published in article PMC10849753, “Antiproliferative activity of platinum(II) and copper(II) complexes containing novel biquinoxaline ligands” (Metallomics: Integrated Biometal Science, 2024).
# Legend:
# [1] = target: T1, human serum albumin (HSA) (Homo sapiens, UniProt P02768); assay: HSA fluorescence quenching titration; assay type: binding; parameters: unit not given here; details: 1 μM HSA, 0-50 μM complexes
# Protocol: Tests involving fluorescence titration were conducted by maintaining the concentration of 1 μM HSA and changing the concentrations of the complexes between 0 and 50 μM in 5 mM Tris HCl buffer. The fluorescence spectral measurements were made at […] to 500 nm after exciting the solution at 280 nm.
# [2] = target: T1, human serum albumin (HSA); assay: UV titration with HSA; details: binding to HSA, 310-340 K
# Protocol: The change in the electronic absorption spectrum of the complexes in the presence and the absence of CT-DNA was followed using an HP Agilent8453 Spectrophotometer. During the measurements, the concentration of the compounds was kept constant [Cu(tpbq)Cl2 = 3.0 × 10^−3 M; Cu(ttbq)Cl2 = 0.50 × 10^−3 M; Pt(tpbq)Cl2 = 3.0 × 10^−3 M; Pt(ttbq)Cl2 = 3.0 × 10^−3 M)], while the CT-DNA concentration was changed depending on the R (R=[DNA]/[complex]) value of 0 to 10. […] The optimal incubation time was determined as 30 min for Cu(ttbq)Cl2, 60 min for Pt(tpbq)Cl2, and 45 min for Cu(tpbq)Cl2 and Pt(ttbq)Cl2 at 37°C spectroscopically. […] The optimal incubation time for HSA binding titrations was determined as 30 min for Cu(ttbq)Cl2 and Pt(ttbq)Cl2, and 60 min for Cu(tpbq) Cl2 and Pt(tpbq)Cl2 spectroscopically.[37]
# EtBr-bound CT-DNA = assay: Fluorescence quenching of EtBr-pretreated CT-DNA (Stern–Volmer); assay type: binding, calf; parameters: unit not given here; details: 0 to 160 μM compounds
# Protocol: In order to obtain the linear Stern–Volmer quenching constant (Ksv), a Thermo-Scientific Lumina Fluorescence Spectrometer was used to conduct the flourometric measurements of 10 μM ethidium bromide (EtBr)-pretreated CT-DNA solutions in the presence of 0 to 160 μM compounds.[31],[36] The excitation wavelength was adjusted at 478 nm, and emissions ware observed at about 610 nm.
# CHO-K1 cells = assay: MTT cell viability assay (non-cancer control); assay type: cell-based, Chinese hamster
# Protocol: (§1) Cell culture growth conditions: Selected cancer cell lines from different origins, including human glioblastoma A172 (CRL-1620), LN229 (CRL-2611), U87 (HTB-14) cell lines, human cervix HeLa (ATCC, CCL-2), human breast MDA -231 (HTB-26), human prostate PC-3 (ATCC, CRL-1435), human lung A-549 (CCL-185), and non-cancer Chinese hamster ovary CHOK1 cell line (CCL61) (which was used as control) were purchased from American Type Culture Collection (ATCC, USA). These cultures were grown in Dulbecco's modified Eagle's medium-F12 (DMEM/F12, #D0547, Sigma-Aldrich) supplemented with 5% fetal bovine serum (#10500, Gibco) and 1% antibiotic-antimycotic (#15240, Gibco), and incubated at 37°C and 5% CO2. They were harvested and used for the following assays after reaching 70–80% confluency.
# (§2) The used cell lines (A172, LN229, U87, HeLa, MDA-231, PC-3, A549, and CHO-K1) were harvested and seeded (6 × 10^3 cells/well) into the 96-well plates and incubated at 37°C and 5% CO2 for 24 h. After that, the synthesized Cu(II) and Pt(II) complexes, at a concentration range of 6.25 to 100 μM in DMEM-F12, were added to the cell monolayers and incubated at 37°C and 5% CO2 for 24, 48, and 72 h. The dose–response relationships of the synthesized complexes were determined by using an MTT colorimetric agent (3-[4,5-dimethylthiazol-2-yl]-2,5-diphenyltetrazolium bromide, #M5655, Sigma-Aldrich), which is reduced by the mitochondrial enzymes of the metabolically active live cells and converted into a purple formazan product. The MTT stock solution was later dissolved in a phosphate buffer solution (PBS, 5 mg/ml, w/v) and, then, 5 μg/ml of MTT in DMEM was added into each well and incubated at 37°C and 5% CO2 for 4 h. DMSO (#D 8418, Sigma-Aldrich), as a dissolving solution for formazan crystals, was added into each well and placed in a shaker for 2 h. The absorbance at a test wavelength of 570 nm and a reference wavelength of 630 nm was measured on a microplate reader.
# MDA231 cells = assay: MTT cell viability assay; assay type: cell-based, human
# Protocol: as §1, §2
# PC3 cells = assay: MTT cell viability assay; assay type: cell-based, human
# Protocol: as §1, §2
# A549 cells = assay: MTT cell viability assay; assay type: cell-based, human
# Protocol: as §1, §2
# LN229 cells = assay: MTT cell viability assay; assay type: cell-based, human
# Protocol: as §1, §2
# U87 cells = assay: MTT cell viability assay; assay type: cell-based, human
# Protocol: as §1, §2
# HeLa cells [3] = assay: MTT cell viability assay; assay type: cell-based, human
# Protocol: as §1, §2
# [4] = target: T1, human serum albumin (HSA); assay: HSA thermal denaturation; assay type: binding; details: HSA alone 114°C; 280 nm
# Protocol: The HSA thermal decomposition was followed at 280 nm upon increasing the temperature from 30°C to 130°C at a 1°C min^−1 rate from the spectral change. In order to better examine the processes involving the interaction of metal complexes and protein structure, viscometric titration was carried out in the same manner as for the nucleic acid.
# HeLa cells [5] = assay: In vitro scratch wound healing (cell migration); assay type: cell-based, human; details: 6.25 and 12.5 μM, 24, 48, and 72 h
# Protocol: In vitro scratch wound healing experiments were carried out with HeLa cell lines (3 × 10^4 cells/insert), which were seeded into 6-well plates. When they reached 80–90% confluence, scratches were created using AutoScratch (BioTek) in a straight line. The same Cu(II) or Pt(II) complex concentrations (6.25 or 12.5 μM) were used and incubated in the presence of 5% CO2 at 37°C in a humidified incubator for 24, 48, and 72 h. Images were obtained at the beginning of the exposure (time 0), and repeated at the end of 24, 48, and 72 h incubation periods.
# T1 sequence (P02768 25-609): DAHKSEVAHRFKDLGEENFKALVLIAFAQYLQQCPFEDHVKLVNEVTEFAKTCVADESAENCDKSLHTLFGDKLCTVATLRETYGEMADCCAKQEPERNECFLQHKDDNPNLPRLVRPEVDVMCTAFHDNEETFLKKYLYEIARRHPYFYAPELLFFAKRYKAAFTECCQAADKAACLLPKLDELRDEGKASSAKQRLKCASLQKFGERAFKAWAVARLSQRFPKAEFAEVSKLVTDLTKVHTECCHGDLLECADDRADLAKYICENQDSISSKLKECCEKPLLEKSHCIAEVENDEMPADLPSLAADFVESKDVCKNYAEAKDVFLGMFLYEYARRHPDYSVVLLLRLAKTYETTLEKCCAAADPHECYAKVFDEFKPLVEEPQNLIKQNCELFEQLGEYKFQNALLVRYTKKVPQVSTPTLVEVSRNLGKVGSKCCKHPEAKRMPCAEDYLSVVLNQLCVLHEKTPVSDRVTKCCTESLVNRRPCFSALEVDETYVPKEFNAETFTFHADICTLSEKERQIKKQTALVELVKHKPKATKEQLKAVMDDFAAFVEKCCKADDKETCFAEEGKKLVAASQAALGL
SMILES,KSV (Stern–Volmer quenching constant) [1],ΔG^o (standard Gibbs free energy change) [2],ΔH^o (standard enthalpy change) [2],ΔS^o (standard entropy change) [2],KSV (Stern–Volmer quenching constant) (EtBr-bound CT-DNA),"IC50 (CHO-K1 cells; CHO-K1, 24 h exposure)","IC50 (CHO-K1 cells; CHO-K1, 48 h exposure)","IC50 (CHO-K1 cells; CHO-K1, 72 h exposure)","IC50 (MDA231 cells; MDA231, 24 h exposure)","IC50 (MDA231 cells; MDA231, 48 h exposure)","IC50 (MDA231 cells; MDA231, 72 h exposure)","IC50 (PC3 cells; PC3, 24 h exposure)","IC50 (PC3 cells; PC3, 48 h exposure)","IC50 (PC3 cells; PC3, 72 h exposure)","IC50 (A549 cells; A549, 24 h exposure)","IC50 (A549 cells; A549, 48 h exposure)","IC50 (A549 cells; A549, 72 h exposure)","IC50 (LN229 cells; LN229, 24 h exposure)","IC50 (LN229 cells; LN229, 48 h exposure)","IC50 (LN229 cells; LN229, 72 h exposure)",other results
[Cl][Pt][Cl].c1csc(-c2nc3ccc(-c4ccc5nc(-c6cccs6)c(-c6cccs6)nc5c4)cc3nc2-c2cccs2)c1 [Pt(ttbq)Cl2],0.0589,-28600 J,33200 J,198.00 J/K,0.0143,> 100 µM,> 100 µM,> 100 µM,85 ± 10.8 µM,> 100 µM,> 100 µM,> 100 µM,> 100 µM,> 100 µM,95 ± 2.93 µM,> 100 µM,> 100 µM,67.9 ± 16.3 µM,44.8 ± 11.6 µM,38.8 ± 1.46 µM,"IC50 (U87 cells; U87, 24 h exposure): > 100 µM; IC50 (U87 cells; U87, 48 h exposure): 9.24 ± 4.16 µM; IC50 (U87 cells; U87, 72 h exposure): 5.95 ± 1.68 µM; IC50 (HeLa cells [3]; 24 h exposure): 88.9 ± 8.31 µM; IC50 (HeLa cells [3]; 48 h exposure): 79.7 ± 24.2 µM; IC50 (HeLa cells [3]; 72 h exposure): > 100 µM; melting point of HSA upon addition of the complex [4]: 105 °C; migration of HeLa cells toward the scratch zone (HeLa cells [5]): declined"
[Cl][Cu][Cl].c1ccc(-c2nc3ccc(-c4ccc5nc(-c6ccccn6)c(-c6ccccn6)nc5c4)cc3nc2-c2ccccn2)nc1 [Cu(tpbq)Cl2],0.0059,-19800 J,120800 J,458.15 J/K,0.0105,> 100 µM,> 100 µM,> 100 µM,72.1 ± 26 µM,> 100 µM,> 100 µM,> 100 µM,> 100 µM,> 100 µM,> 100 µM,> 100 µM,> 100 µM,> 100 µM,> 100 µM,> 100 µM,"IC50 (U87 cells; U87, 24 h exposure): 79.5 ± 26.4 µM; IC50 (U87 cells; U87, 48 h exposure): 5.49 ± 0.01 µM; IC50 (U87 cells; U87, 72 h exposure): 13.5 ± 6.06 µM; IC50 (HeLa cells [3]; 24 h exposure): > 100 µM; IC50 (HeLa cells [3]; 48 h exposure): > 100 µM; IC50 (HeLa cells [3]; 72 h exposure): > 100 µM; melting point of HSA upon addition of the complex [4]: 110 °C"
[Cl][Cu][Cl].c1csc(-c2nc3ccc(-c4ccc5nc(-c6cccs6)c(-c6cccs6)nc5c4)cc3nc2-c2cccs2)c1 [Cu(ttbq)Cl2],0.0720,-27900 J,53100 J,258.51 J/K,0.0137,> 100 µM,> 100 µM,> 100 µM,20.6 ± 2.39 µM,32.1 ± 1.05 µM,41 ± 0.6 µM,65.8 ± 5.35 µM,75.5 ± 3.16 µM,62.3 ± 4.02 µM,73.5 ± 1.35 µM,70.7 ± 4.09 µM,66.9 ± 8.7 µM,42 ± 14 µM,36 ± 6.38 µM,54 ± 3.1 µM,"IC50 (U87 cells; U87, 24 h exposure): 31.2 ± 0.43 µM; IC50 (U87 cells; U87, 48 h exposure): 2.95 ± 0.97 µM; IC50 (U87 cells; U87, 72 h exposure): 5.75 ± 0.03 µM; IC50 (HeLa cells [3]; 24 h exposure): 67.5 ± 2.78 µM; IC50 (HeLa cells [3]; 48 h exposure): 74.22 ± 0.45 µM; IC50 (HeLa cells [3]; 72 h exposure): 65 ± 2.75 µM; melting point of HSA upon addition of the complex [4]: 111 °C; migration of HeLa cells toward the scratch zone (HeLa cells [5]): declined"
[Cl][Pt][Cl].c1ccc(-c2nc3ccc(-c4ccc5nc(-c6ccccn6)c(-c6ccccn6)nc5c4)cc3nc2-c2ccccn2)nc1 [Pt(tpbq)Cl2],0.0261,-31400 J,22900 J,174.97 J/K,0.0082,> 100 µM,86.6 ± 1.98 µM,77.5 ± 0.87 µM,94.8 ± 2.57 µM,> 100 µM,99.4 ± 5.71 µM,> 100 µM,> 100 µM,> 100 µM,> 100 µM,58.4 ± 5.35 µM,40.3 ± 3.42 µM,> 100 µM,91.9 ± 49 µM,83.9 ± 3.16 µM,"IC50 (U87 cells; U87, 24 h exposure): 58.4 ± 11.8 µM; IC50 (U87 cells; U87, 48 h exposure): 34.7 ± 2.16 µM; IC50 (HeLa cells [3]; 24 h exposure): > 100 µM; IC50 (HeLa cells [3]; 48 h exposure): 58 ± 26.9 µM; IC50 (HeLa cells [3]; 72 h exposure): 42.9 ± 1.69 µM; melting point of HSA upon addition of the complex [4]: 109 °C; migration of HeLa cells toward the scratch zone (HeLa cells [5]): declined"
